# Columns and labels:
# HL60 cell [1] = test: Quantification of morphological change (area change amount, peripheral length change amount) from phase difference moving images; assay type: cell-based
# Excerpt: An image (moving image) of an HL60 cell that had been differentiated and stimulated by adding 1% DMSO and performing culture for one week was imaged over time with a phase difference microscope under conditions that magnification of an objective lens was 60 times, an imaging interval was 27 frames/second, and imaging time was 60 seconds. FIG. 5 is an image illustrating cell boundary recognition and tracking according to Example 1. […] Thereafter, the cell boundary was tracked by matching the drawn solid line to a next image. Then, a cell area in the continuous image was tracked by repeating matching to the continuous image.
# Thereafter, the area and the peripheral length were calculated from the tracked cell area, and an average of the areas, an average of the peripheral lengths, and change amounts thereof in the continuous image were calculated. Then, the change amount with respect to the average of the areas or peripheral lengths was calculated as the morphological change amount (area change amount and peripheral length change amount). This was used as Control. By a similar method, as for a case where 100 μM of a mitochondrial […] agent, carbonyl cyanide m-chlorophenylhydrazone (also simply referred to as “CCCP” here), which is a drug that inhibits intracellular metabolism, was added, the morphological change amount was calculated similarly. The upper drawing of FIG. 6 is a drawing-substituting graph illustrating an area change amount and a peripheral length change amount according to Example 1, and the lower drawing of FIG. 6 is an image illustrating cell boundary recognition and tracking in Control and in a case where CCCP is added according to Example 1.
# HL60 cell [2] = test: Motion amount of the intracellular structure (motion vector analysis) from moving images; assay type: cell-based; conditions: concentrations of 0.01 μM, 0.1 μM, 1 μM, and 10 μM, FIG. 7
# Excerpt: More specifically, the analysis unit 121 extracts a motion vector between at least two imaged images having different imaging times. For example, the analysis unit 121 can extract a motion vector from a range designated by a user using a […], a gradient method, or the like. Note that the analysis unit 121 may extract a motion vector from the entire imaged image.
# The length of a motion vector is a motion amount. The analysis unit 121 can calculate a motion amount (motion speed) of an intracellular structure per unit time from an interval (time) of the two imaged images from which the motion vector has been extracted. Note that in the present technology, the motion amount of the intracellular structure can be determined using an average value, a median value, a maximum value, a standard deviation, and the like of the lengths of the motion vectors.
# By a similar method to Example 1 described above, the morphological change amounts (area change amounts and peripheral length change amounts) in a case where CCCP was added at concentrations of 0.01 μM, 0.1 μM, 1 μM, and 10 μM were calculated, respectively. Furthermore, a motion vector under similar conditions was calculated at an interval of about 1 μm, and a spatiotemporal average of the motion amounts (motion speeds) per unit time for each cell was calculated to create a color map. […]
# [3] = 100 μM added, differentiated HL60 cell (1% DMSO, one week), vs Control, FIG. 6
# [4] = concentrations of 0.01 μM, 0.1 μM, 1 μM, and 10 μM, HL60 cell, FIG. 7
# [5] = 200 nM added, HL60 cell, vs Control, FIG. 10
SMILES,area change amount (HL60 cell [1]; [3]),peripheral length change amount (HL60 cell [1]; [3]),area change amount (HL60 cell [1]; [4]),peripheral length change amount (HL60 cell [1]; [4]),motion amount (vector analysis) of the intracellular structure (HL60 cell [2]),area change amount (HL60 cell [1]; [5]),peripheral length change amount (HL60 cell [1]; [5])
"N#CC(C#N)=NNc1cccc(Cl)c1 [CCCP, carbonyl cyanide m-chlorophenylhydrazone]",significant decrease,significant decrease,concentration-dependent decrease,concentration-dependent decrease,concentration-dependent decrease,,
C=C1[C@@H](C)[C@H]2[C@H](Cc3ccccc3)NC(=O)[C@]23[C@H](OC(C)=O)/C=C/[C@@](C)(O)C(=O)[C@@H](C)C/C=C/[C@H]3[C@@H]1O [Cytochalasin D],,,,,,significant decrease,significant decrease

# Source: patent publication US20200020099A1, “INFORMATION PROCESSING DEVICE, INFORMATION PROCESSING SYSTEM, AND INFORMATION PROCESSING METHOD” (SONY CORPORATION, priority 2017, published 2020)
